According to PubChem BioAssay AID2060890 (Molecular Pharmacology Branch, DTP, NCI, 2025):
“And” between values parts separate entries of the source, which are not always exact repeats. Equal values may be shown once.

Tested on: LG0703-F948-PDC complex spheroid viability
Assay: Anticancer human tumor LG0703-F948-PDC patient-derived lung adenocarcinoma cell line growth inhibition [RAS]
Details: for viability, T/C: stronger effect = lower value; active means viability on the fitted dose curve at most 10% of control; inactive means the rest
Outline: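 Agents were tested in combination matrices in half-log decrements from a top concentration at or near clinical Cmax (10 microM if undetermined). Targets were multi-cell spheroids of tumour lines plus HUVEC and MSC stromal cells.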

[1] = curve of first compound, second compound 0.000949 µM
[2] = curve of first compound, second compound 0.003 µM
[3] = curve of first compound, second compound 0.00949 µM
[4] = curve of first compound, second compound 0.03 µM
[5] = curve of first compound, second compound 0.0949 µM
[6] = curve of first compound, second compound 0.3 µM
[7] = second compound 0.000949 µM, first compound 0.0316 µM
[8] = second compound 0.000949 µM, first compound 0.1 µM
[9] = second compound 0.003 µM, first compound 0.0316 µM
[10] = second compound 0.003 µM, first compound 0.1 µM
[11] = second compound 0.00949 µM, first compound 0.0316 µM
[12] = second compound 0.00949 µM, first compound 0.1 µM
[13] = second compound 0.03 µM, first compound 0.0316 µM
[14] = second compound 0.03 µM, first compound 0.1 µM
[15] = second compound 0.0949 µM, first compound 0.0316 µM
[16] = second compound 0.0949 µM, first compound 0.1 µM
[17] = second compound 0.3 µM, first compound 0.0316 µM
[18] = second compound 0.3 µM, first compound 0.1 µM
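Further: spheroids exposed to agents for 7 days.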
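Wherever viability, T/C is given: 100% = DMSO vehicle wells.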

CC(Nc1ccc2c(c1)OCCn1cc(N3C(=O)OCC3C(F)F)nc1-2)C(N)=O (stereo not drawn) + CCn1c(-c2cc(N3CCN(C)CC3)cnc2C(C)OC)c2c3cc(ccc31)-c1csc(n1)CC(NC(=O)C1CC1C)C(=O)N1CCCC(N1)C(=O)OCC(C)(C)C2
inactive: viability, T/C [7] 66.8% | viability, T/C [8] 55% | viability, T/C (second compound 0.000949 µM, first compound 0.316 µM) 37.9% | viability, T/C (second compound 0.000949 µM, first compound 1 µM) 22.5% | viability, T/C (second compound 0.000949 µM, first compound 3.16 µM) 16.8% | viability, T/C (second compound 0.000949 µM, first compound 10 µM) 8.97% | viability, T/C [9] 38.7% | viability, T/C [10] 31.1% | viability, T/C (second compound 0.003 µM, first compound 0.316 µM) 20.2% | viability, T/C (second compound 0.003 µM, first compound 1 µM) 12.6% | viability, T/C [11] 20.7% | viability, T/C [12] 16.5% | viability, T/C [13] 10.8%
active: viability, T/C (second compound 0.003 µM, first compound 3.16 µM) 8.64% | viability, T/C (second compound 0.003 µM, first compound 10 µM) 3.86% | viability, T/C (second compound 0.00949 µM, first compound 0.316 µM) 7.46% | viability, T/C (second compound 0.00949 µM, first compound 1 µM) 5.56% | viability, T/C (second compound 0.00949 µM, first compound 3.16 µM) 4.28% | viability, T/C (second compound 0.00949 µM, first compound 10 µM) 1.67% | viability, T/C [14] 8.93% | viability, T/C (second compound 0.03 µM, first compound 0.316 µM) 4% | viability, T/C (second compound 0.03 µM, first compound 1 µM) 3.07% | viability, T/C (second compound 0.03 µM, first compound 3.16 µM) 1.45% | viability, T/C (second compound 0.03 µM, first compound 10 µM) 1.14% | viability, T/C [15] 8.21% | viability, T/C [16] 5.47% | viability, T/C (second compound 0.0949 µM, first compound 0.316 µM) 3.07% | viability, T/C (second compound 0.0949 µM, first compound 1 µM) 2.1% | viability, T/C (second compound 0.0949 µM, first compound 3.16 µM) 1.39% | viability, T/C (second compound 0.0949 µM, first compound 10 µM) 0.7% | viability, T/C [17] 6.47% | viability, T/C [18] 4.12% | viability, T/C (second compound 0.3 µM, first compound 0.316 µM) 2.78% | viability, T/C (second compound 0.3 µM, first compound 1 µM) 2.27% | viability, T/C (second compound 0.3 µM, first compound 3.16 µM) 1.25% | viability, T/C (second compound 0.3 µM, first compound 10 µM) 0.71%
< 31.6 nM: IC50 [2] | IC50 [3] | IC50 [4] | IC50 [5] | IC50 [6]
136 nM: IC50 [1]

CC(Nc1ccc2c(c1)OCCn1cc(N3C(=O)OCC3C(F)F)nc1-2)C(N)=O (stereo not drawn) + C#Cc1c(F)ccc2cc(O)cc(-c3ncc4c(N5CC6CCC(C5)N6)nc(OCC56CCCN5CC(F)C6)nc4c3F)c12
62 nM: IC50 (curve of first compound, second compound 3.16 µM)
< 31.6 nM: IC50 (curve of first compound, second compound 10 µM)
active: viability, T/C (second compound 1 µM, first compound 10 µM) 9.15% | viability, T/C (second compound 3.16 µM, first compound 10 µM) 4.54% | viability, T/C (second compound 10 µM, first compound 1 µM) 7.38% | viability, T/C (second compound 10 µM, first compound 3.16 µM) 4.96% | viability, T/C (second compound 10 µM, first compound 10 µM) 2.4%
903 nM: IC50 (curve of first compound, second compound 0.316 µM)
1610 nM: IC50 (curve of first compound, second compound 0.0316 µM)
inactive: viability, T/C (second compound 0.0316 µM, first compound 0.0316 µM) 96% | viability, T/C (second compound 0.0316 µM, first compound 0.1 µM) 88.5% | viability, T/C (second compound 0.0316 µM, first compound 0.316 µM) 76.3% | viability, T/C (second compound 0.0316 µM, first compound 1 µM) 56.4% | viability, T/C (second compound 0.0316 µM, first compound 3.16 µM) 39.9% | viability, T/C (second compound 0.0316 µM, first compound 10 µM) 21.6% | viability, T/C (second compound 0.1 µM, first compound 0.0316 µM) 80.7% | viability, T/C (second compound 0.1 µM, first compound 0.1 µM) 81% | viability, T/C (second compound 0.1 µM, first compound 0.316 µM) 66.5% | viability, T/C (second compound 0.1 µM, first compound 1 µM) 56.3% | viability, T/C (second compound 0.1 µM, first compound 3.16 µM) 39.7% | viability, T/C (second compound 0.1 µM, first compound 10 µM) 19.5% | viability, T/C (second compound 0.316 µM, first compound 0.0316 µM) 78.1% | viability, T/C (second compound 0.316 µM, first compound 0.1 µM) 71% | viability, T/C (second compound 0.316 µM, first compound 0.316 µM) 59.9% | viability, T/C (second compound 0.316 µM, first compound 1 µM) 50.8% | viability, T/C (second compound 0.316 µM, first compound 3.16 µM) 32% | viability, T/C (second compound 0.316 µM, first compound 10 µM) 12.5% | viability, T/C (second compound 1 µM, first compound 0.0316 µM) 77.7% | viability, T/C (second compound 1 µM, first compound 0.1 µM) 71.2% | viability, T/C (second compound 1 µM, first compound 0.316 µM) 52.7% | viability, T/C (second compound 1 µM, first compound 1 µM) 32.2% | viability, T/C (second compound 1 µM, first compound 3.16 µM) 17.6% | viability, T/C (second compound 3.16 µM, first compound 0.0316 µM) 54.1% | viability, T/C (second compound 3.16 µM, first compound 0.1 µM) 47.5% | viability, T/C (second compound 3.16 µM, first compound 0.316 µM) 34% | viability, T/C (second compound 3.16 µM, first compound 1 µM) 18.7% | viability, T/C (second compound 3.16 µM, first compound 3.16 µM) 12.7% | viability, T/C (second compound 10 µM, first compound 0.0316 µM) 48.1% | viability, T/C (second compound 10 µM, first compound 0.1 µM) 31% | viability, T/C (second compound 10 µM, first compound 0.316 µM) 15.2%
381 nM: IC50 (curve of first compound, second compound 1 µM)
1520 nM: IC50 (curve of first compound, second compound 0.1 µM)

CCC(CC)c1cc(NC2CCC(N)C2)n2nccc2n1 (stereo not drawn)
inactive: viability, T/C (compound 0.0316 µM) 85.9% and 96.8% and 101% | viability, T/C (compound 0.1 µM) 94.6% and 93.7% and 90% | viability, T/C (compound 0.316 µM) 75.7% and 85.7% and 97% | viability, T/C (compound 1 µM) 76.4% and 54.7% and 68.8%
1520 nM and 1080 nM and 1380 nM: IC50 (curve of compound)
active: viability, T/C (compound 3.16 µM) 4.37% and 1.19% and 2.28% | viability, T/C (compound 10 µM) 0.41% and 0.27% and 0.38%

CC(C)n1nc(-c2ccc3oc(N)nc3c2)c2c(N)ncnc21 + CCn1c(-c2cccnc2C(C)OC)c2c3cc(ccc31)N1CCOC(CC(NC(=O)C(C(C)C)N(C)C(=O)C3(F)CCN(C(=O)C#CC(C)(C)N(C)C)CC3)C(=O)N3CCCC(N3)C(=O)OCC(C)(C)C2)C1
< 0.316 nM: IC50 [6]
7.72 nM: IC50 [3]
8.1 nM: IC50 [4]
1.85 nM: IC50 [5]
8.31 nM: IC50 [2]
6.03 nM: IC50 [1]
inactive: viability, T/C (second compound 0.000949 µM, first compound 0.000316 µM) 105% | viability, T/C (second compound 0.000949 µM, first compound 0.001 µM) 72.7% | viability, T/C (second compound 0.000949 µM, first compound 0.00316 µM) 64.1% | viability, T/C (second compound 0.000949 µM, first compound 0.01 µM) 43.5% | viability, T/C [7] 27% | viability, T/C [8] 19.9% | viability, T/C (second compound 0.003 µM, first compound 0.000316 µM) 87% | viability, T/C (second compound 0.003 µM, first compound 0.001 µM) 79.4% | viability, T/C (second compound 0.003 µM, first compound 0.00316 µM) 65% | viability, T/C (second compound 0.003 µM, first compound 0.01 µM) 49.8% | viability, T/C [9] 25.5% | viability, T/C [10] 17.9% | viability, T/C (second compound 0.00949 µM, first compound 0.000316 µM) 88.2% | viability, T/C (second compound 0.00949 µM, first compound 0.001 µM) 83.8% | viability, T/C (second compound 0.00949 µM, first compound 0.00316 µM) 59.9% | viability, T/C (second compound 0.00949 µM, first compound 0.01 µM) 48.2% | viability, T/C [11] 28.7% | viability, T/C [12] 17.2% | viability, T/C (second compound 0.03 µM, first compound 0.000316 µM) 92.4% | viability, T/C (second compound 0.03 µM, first compound 0.001 µM) 87.6% | viability, T/C (second compound 0.03 µM, first compound 0.00316 µM) 68.8% | viability, T/C (second compound 0.03 µM, first compound 0.01 µM) 46.8% | viability, T/C [13] 23.9% | viability, T/C [14] 15.6% | viability, T/C (second compound 0.0949 µM, first compound 0.000316 µM) 67.4% | viability, T/C (second compound 0.0949 µM, first compound 0.001 µM) 57.5% | viability, T/C (second compound 0.0949 µM, first compound 0.00316 µM) 41.2% | viability, T/C (second compound 0.0949 µM, first compound 0.01 µM) 36.8% | viability, T/C [15] 18.5% | viability, T/C [16] 13.2% | viability, T/C (second compound 0.3 µM, first compound 0.000316 µM) 43.3% | viability, T/C (second compound 0.3 µM, first compound 0.001 µM) 36.8% | viability, T/C (second compound 0.3 µM, first compound 0.00316 µM) 29.3% | viability, T/C (second compound 0.3 µM, first compound 0.01 µM) 21.9% | viability, T/C [17] 11.7%
active: viability, T/C [18] 8.29%
